PubChem BioAssay (NCI)
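Each compound was tested at five concentrations against cells in 96-well plates for 48 hours. The concentration for 50% growth inhibition is given as GI50. At the TGI there is no net growth.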

Assays:
Experiment in all cases: NCI-60 cell line screen, 48 h
SNB-19 CNS = system: SNB-19 CNS
OVCAR-3 ovarian = system: OVCAR-3 ovarian
UO-31 renal = system: UO-31 renal
MDA-MB-231 breast = system: MDA-MB-231 breast
UACC-62 melanoma = system: UACC-62 melanoma
HT29 colon = system: HT29 colon
EKVX NSCLC = system: EKVX NSCLC
SF-268 CNS = system: SF-268 CNS
HCT-116 colon = system: HCT-116 colon
HL-60(TB) leukemia = system: HL-60(TB) leukemia

Fc1ccc(-c2nn3c(COc4ccc(Cl)cc4Cl)nnc3s2)cc1Oc1ccccc1
GI50 (SNB-19 CNS): 13.3 µM
TGI (SNB-19 CNS): 26.1 µM
GI50 (OVCAR-3 ovarian): 705 nM
TGI (OVCAR-3 ovarian): 13.3 µM
GI50 (UO-31 renal): 30 µM
TGI (UO-31 renal): > 100 µM
GI50 (MDA-MB-231 breast): 11.6 µM
TGI (MDA-MB-231 breast): 23.8 µM
GI50 (UACC-62 melanoma): 14.3 µM
TGI (UACC-62 melanoma): 28.9 µM
GI50 (HT29 colon): 15.9 µM
TGI (HT29 colon): 34.8 µM
GI50 (EKVX NSCLC): 23.7 µM
TGI (EKVX NSCLC): 67.3 µM
GI50 (SF-268 CNS): 29.8 µM
TGI (SF-268 CNS): 87.8 µM
GI50 (HCT-116 colon): 13.2 µM
TGI (HCT-116 colon): 25.9 µM

COC(=O)NC(=O)c1cn(C2CCCCC2)c(=O)[nH]c1=O
TGI (SNB-19 CNS): > 100 µM
TGI (OVCAR-3 ovarian): > 100 µM
TGI (UO-31 renal): > 100 µM
TGI (UACC-62 melanoma): > 100 µM
TGI (HT29 colon): > 100 µM
TGI (HL-60(TB) leukemia): > 100 µM
TGI (SF-268 CNS): > 100 µM
TGI (HCT-116 colon): > 100 µM

COc1ccc(/C=C2/CN(CCC#N)C/C(=C\c3ccc(OC)cc3)C2=O)cc1
GI50 (SNB-19 CNS): 4.07 µM
TGI (SNB-19 CNS): > 100 µM
GI50 (OVCAR-3 ovarian): 2790 nM
TGI (OVCAR-3 ovarian): 7.46 µM
GI50 (UO-31 renal): 1.74 µM
TGI (UO-31 renal): 4.86 µM
GI50 (MDA-MB-231 breast): 2.71 µM
TGI (MDA-MB-231 breast): 15 µM
GI50 (UACC-62 melanoma): 1.66 µM
TGI (UACC-62 melanoma): 3.81 µM
GI50 (HT29 colon): 1.9 µM
TGI (HT29 colon): 3.9 µM
GI50 (SF-268 CNS): 3.27 µM
TGI (SF-268 CNS): 36.7 µM
GI50 (HCT-116 colon): 0.829 µM
TGI (HCT-116 colon): 2.38 µM

CC1(C)CC(N2CCN(C3CC(C)(C)NC(C)(C)C3)CC2)CC(C)(C)N1
TGI (SNB-19 CNS): > 100 µM
TGI (OVCAR-3 ovarian): > 100 µM
TGI (UO-31 renal): > 100 µM
TGI (UACC-62 melanoma): > 100 µM
TGI (HT29 colon): > 100 µM
TGI (HL-60(TB) leukemia): > 100 µM
TGI (EKVX NSCLC): > 100 µM
TGI (SF-268 CNS): > 100 µM
TGI (HCT-116 colon): > 100 µM

COC(CC1(OC)OC(=O)C=C1N)OC (stereo not given)
TGI (SNB-19 CNS): > 100 µM
TGI (OVCAR-3 ovarian): > 100 µM
TGI (UO-31 renal): > 100 µM
TGI (UACC-62 melanoma): > 100 µM
TGI (HT29 colon): > 100 µM
TGI (HL-60(TB) leukemia): > 100 µM
TGI (EKVX NSCLC): > 100 µM
TGI (SF-268 CNS): > 100 µM
TGI (HCT-116 colon): > 100 µM

COC(=O)C1=C(\O)C[C@@]2(C)CC[C@@H](C(=O)OC)C2C/C=C\1C(=O)OC (stereo not given in full)
TGI (SNB-19 CNS): > 100 µM
TGI (OVCAR-3 ovarian): > 100 µM
TGI (UO-31 renal): > 100 µM
TGI (UACC-62 melanoma): > 100 µM
TGI (HT29 colon): > 100 µM
TGI (HL-60(TB) leukemia): > 100 µM
TGI (EKVX NSCLC): > 100 µM
TGI (SF-268 CNS): > 100 µM
TGI (HCT-116 colon): > 100 µM

N#CC1C(=O)NC(=O)C1=O (stereo not given)
TGI (SNB-19 CNS): > 100 µM
TGI (OVCAR-3 ovarian): > 100 µM
TGI (UO-31 renal): > 100 µM
TGI (UACC-62 melanoma): > 100 µM
TGI (HT29 colon): > 100 µM
TGI (EKVX NSCLC): > 100 µM
TGI (SF-268 CNS): > 100 µM
TGI (HCT-116 colon): > 100 µM

CCCCCCCCCCCC(=O)OC(COC(N)=O)COc1ccc(Cl)cc1 (stereo not given)
TGI (SNB-19 CNS): 83 µM
TGI (OVCAR-3 ovarian): 31.6 µM
TGI (UO-31 renal): > 100 µM
TGI (UACC-62 melanoma): 41.3 µM
TGI (HT29 colon): 40.6 µM
TGI (HL-60(TB) leukemia): 33.3 µM
TGI (EKVX NSCLC): 92.1 µM
TGI (SF-268 CNS): 42.5 µM
TGI (HCT-116 colon): 30 µM

NC(=O)c1cc([N+](=O)[O-])cc([N+](=O)[O-])c1
TGI (SNB-19 CNS): > 100 µM
TGI (OVCAR-3 ovarian): > 100 µM
TGI (UO-31 renal): > 100 µM
TGI (UACC-62 melanoma): > 100 µM
TGI (HT29 colon): > 100 µM
TGI (HL-60(TB) leukemia): > 100 µM
TGI (EKVX NSCLC): > 100 µM
TGI (SF-268 CNS): > 100 µM
TGI (HCT-116 colon): > 100 µM

O=C(/C=C/c1ccc(O)cc1)c1cc(Cl)ccc1O
TGI (SNB-19 CNS): > 100 µM
TGI (OVCAR-3 ovarian): > 100 µM
TGI (UO-31 renal): 70.5 µM
TGI (UACC-62 melanoma): > 100 µM
TGI (HT29 colon): > 100 µM
TGI (HL-60(TB) leukemia): 45.8 µM
TGI (EKVX NSCLC): > 100 µM
TGI (SF-268 CNS): > 100 µM
TGI (HCT-116 colon): 58 µM

ClCCCCOC1CCCCO1 (stereo not given)
TGI (SNB-19 CNS): > 100 µM
TGI (OVCAR-3 ovarian): > 100 µM
TGI (UO-31 renal): > 100 µM
TGI (UACC-62 melanoma): > 100 µM
TGI (HT29 colon): > 100 µM
TGI (HL-60(TB) leukemia): > 100 µM
TGI (EKVX NSCLC): > 100 µM
TGI (SF-268 CNS): > 100 µM
TGI (HCT-116 colon): > 100 µM

O=C1c2ccccc2C(=O)c2c1ccc1c2N=C(c2ccc(Br)cc2)CC(c2cccc3ccccc23)N1 (stereo not given)
TGI (SNB-19 CNS): > 100 µM
TGI (OVCAR-3 ovarian): > 100 µM
TGI (UO-31 renal): > 100 µM
TGI (UACC-62 melanoma): > 100 µM
TGI (HT29 colon): > 100 µM
TGI (HL-60(TB) leukemia): > 100 µM
TGI (EKVX NSCLC): > 100 µM
TGI (SF-268 CNS): > 100 µM

CCCCC(C(=O)CCC(=O)Nc1ccc(Cl)cc1)C(=O)C(C)C (stereo not given)
TGI (SNB-19 CNS): > 100 µM
TGI (OVCAR-3 ovarian): > 100 µM
TGI (UO-31 renal): > 100 µM
TGI (UACC-62 melanoma): > 100 µM
TGI (HT29 colon): > 100 µM
TGI (HL-60(TB) leukemia): > 100 µM
TGI (EKVX NSCLC): > 100 µM
TGI (SF-268 CNS): > 100 µM
TGI (HCT-116 colon): > 100 µM

CN1CCc2cc3c4cc2C1Cc1ccc(cc1)Oc1cc(ccc1O)CC1c2c(cc(O)c(c2O4)O3)CCN1C (stereo not given)
TGI (SNB-19 CNS): 7.38 µM
TGI (OVCAR-3 ovarian): 11.5 µM
TGI (UO-31 renal): 13.6 µM
TGI (UACC-62 melanoma): 3.76 µM
TGI (HT29 colon): 9.42 µM
TGI (HL-60(TB) leukemia): 41.6 µM
TGI (EKVX NSCLC): 25.8 µM
TGI (SF-268 CNS): 6.18 µM
TGI (HCT-116 colon): 3.19 µM

CC1CC(c2ccc(Cl)c(Cl)c2)=Nc2ccccc2S1 (stereo not given)
TGI (SNB-19 CNS): > 100 µM
TGI (OVCAR-3 ovarian): > 100 µM
TGI (UO-31 renal): > 100 µM
TGI (UACC-62 melanoma): > 100 µM
TGI (HT29 colon): > 100 µM
TGI (HL-60(TB) leukemia): > 100 µM
TGI (EKVX NSCLC): > 100 µM
TGI (SF-268 CNS): > 100 µM
TGI (HCT-116 colon): > 100 µM

NCC1(N2CCOCC2)C2CCCC21CNc1ccccc1 (stereo not given)
TGI (SNB-19 CNS): > 100 µM
TGI (OVCAR-3 ovarian): > 100 µM
TGI (UO-31 renal): > 100 µM
TGI (UACC-62 melanoma): > 100 µM
TGI (HT29 colon): > 100 µM
TGI (HL-60(TB) leukemia): > 100 µM
TGI (SF-268 CNS): > 100 µM
TGI (HCT-116 colon): > 100 µM

O=C1CC[C@@H](NC(=O)Cc2ccccc2)C(=O)N1
TGI (SNB-19 CNS): > 100 µM
TGI (OVCAR-3 ovarian): > 100 µM
TGI (UO-31 renal): > 100 µM
TGI (UACC-62 melanoma): > 100 µM
TGI (HT29 colon): > 100 µM
TGI (EKVX NSCLC): > 100 µM
TGI (SF-268 CNS): > 100 µM
TGI (HCT-116 colon): > 100 µM

Cc1ccc(NC(=O)C(=O)CC(=O)c2ccccc2)cc1C
TGI (SNB-19 CNS): > 100 µM
TGI (OVCAR-3 ovarian): > 100 µM
TGI (UO-31 renal): > 100 µM
TGI (UACC-62 melanoma): > 100 µM
TGI (HT29 colon): > 100 µM
TGI (EKVX NSCLC): > 100 µM
TGI (SF-268 CNS): > 100 µM
TGI (HCT-116 colon): > 100 µM

c1ccc2c(c1)N=C(c1ccc3ccccc3c1)CC(c1cccc3ccccc13)S2 (stereo not given)
TGI (SNB-19 CNS): > 100 µM
TGI (OVCAR-3 ovarian): > 100 µM
TGI (UO-31 renal): > 100 µM
TGI (UACC-62 melanoma): > 100 µM
TGI (HT29 colon): > 100 µM
TGI (HL-60(TB) leukemia): 47.1 µM
TGI (EKVX NSCLC): > 100 µM
TGI (SF-268 CNS): > 100 µM
